Where two headings read alike, the source gives them in different places.
Tests used:
Format in all cases: cell-based
Anabaena sp. = assay: Test tube culture inhibition of Anabaena sp., algal units/ml; conditions: for inhibition of growth at 10 ppm: read-out: reduction of algal units/ml, % of the control
Procedure: (§1) The algae used in this particular study were Chlamydomonas sp., Chlorella vulgaris, Anabaena sp., and Anabaena flos-aquae. Cultures of these algae were obtained, subcultured, and aqueous stocks of algae in 400 ml BBM were prepared and were used in log phase growth to innoculate test cultures.
(§2) The fatty acids which were tested as algal inhibitors were 9, 10-dihydroxystearic acid, linoleic acid, dodecanoic acid, and ricinoleic acid.
(§3) The test procedure involved placing 15 ml of BBM into 25 ml test tubes and innoculating them with 0.2 ml of algal stock solution. Twenty test tubes were innoculated with each algae. Four of these cultures were used with each concentration of each of the fatty acids. Four tubes from each set served as controls. Four concentrations of the fatty acids were used for each alga. The concentrations studied were 0.5 PPM, 1.0 PPM, 5.0 PPM, and 10.0 PPM.
(§4) Algal cultures were incubated under constant light of about 200 foot-candles and at a temperature of 68° F. Bold's Basal Medium (BBM), a modification of Bristol's solution was the medium in which all the cultures were grown. Bold's Basal Medium was prepared as follows:
(§5) Concentrations of fatty acids and the amount of stock solution used to prepare them were as follows:
(§6) Each test tube contained 15 ml sterile BBM. To this was added an aliquot of 0.2 of algal stock solution. Then the appropriate aliquots of warm acid stock solution were added to the appropriate number of culture tubes. These cultures were then incubated 5 days and at that point were counted. The same cultures were also counted after a 12 day growth period.
(§7) Stock solutions of the fatty acids to be tested as algal inhibitors were made from a stock solution of 5% sodium bicarbonate in glass-distilled water. The 5% sodium bicarbonate stock solution was made by dissolving 150 grams of sodium bicarbonate in 3000 ml of glass-distilled water. To insure complete dissolution, the solution was heated and stirred on a magnetic stirrer hot plate. The warm solution was used in preparing the fatty acid stock solutions.
(§8) Quanitative phytoplankton values were determined using the random field method. Filaments, colonies, and aggregations of cells were recorded as algal units. Each unit consisted of approximately 6 cells. Unicellular algae were counted as separate units. Algal counts were made from each of three duplicate cultures. One ml of the algal sample was placed in a Sedgwick-Rafter counting chamber, which is 50 mm long by 20 mm, wide by 1 mm deep. A Wild Heerbrugg, compound microscope with a Whipple grid eyepiece was used to determine quantitative algae values.
(§9) One ml of the algal solution was placed in the counting chamber, and two drops of methyl cellulose were added to minimize the movement of Chlamydomonas sp. Ten random fields were counted and all organisms within the Whipple grid field were enumerated.
(§10) The following formula used to calculate the numbers per milliliter from the field counts: [formula] where: C=number of organisms counted,
(§11) The area of the Whipple grid used was 0.46 mm^2, and the depth of a field was 1 mm. Results of the counts were reported as algal units/ml.

Anabaena flos-aquae = assay: Test tube culture inhibition of Anabaena flos-aquae, algal units/ml; conditions: for inhibition of growth at 10 ppm: Dolichospermum flos-aquae, 120 h, read-out: reduction of algal units/ml of the control
Procedure: as §1, §2, §3, §4, §5, §6, §7, §8, §9, §10, §11

Chlamydomonas sp. = assay: Test tube culture inhibition of Chlamydomonas sp., algal units/ml; conditions: for reduction of number of algal units/ml vs control / inhibition of growth at 10 ppm: 10 PPM; for inhibition of growth at 10 ppm: Chlamydomonas, 120 h, read-out: reduction of number of algal units/ml, % of the control
Procedure: as §1, §2, §3, §4, §5, §6, §7, §8, §9, §10, §11

Chlorella vulgaris = assay: Test tube culture inhibition of Chlorella vulgaris, algal units/ml
Procedure: as §1, §2, §3, §4, §5, §6, §7, §8, §9, §10, §11

Work on `CCCCCCCCC(O)C(O)CCCCCCCC(=O)O` (centres unmarked) [9,10-Dihydroxystearic Acid, 9,10-dihydroxystearic acid] yielded an Algal units/ml (Anabaena sp.; 5 days, 0.5 PPM) of 34130 units/ml, an Algal units/ml (Anabaena sp.; 5 days, 1.0 PPM) of 38043 units/ml and an Algal units/ml (Anabaena sp.; 5 days, 5.0 PPM) of 30217 units/ml. The Algal units/ml (Anabaena sp.; 5 days, 10.0 PPM) was 23261 units/ml, the “inhibition” value (Anabaena sp.; 5 days, 10.0 PPM) was “effective as a inhibitor” and the inhibition of growth at 10 ppm (Anabaena sp.; 288 h, 12 days, 10 PPM) was 16.6%. It also gave an Algal units/ml (Anabaena sp.; 12 days, 0.5 PPM) of 158043 units/ml, an Algal units/ml (Anabaena sp.; 12 days, 1.0 PPM) of 166739 units/ml and an Algal units/ml (Anabaena sp.; 12 days, 5.0 PPM) of 106957 units/ml. It also gave an Algal units/ml (Anabaena sp.; 12 days, 10.0 PPM) of 98473 units/ml, an Algal units/ml (Anabaena flos-aquae; 5 days, 0.5 PPM) of 4348 units/ml and an Algal units/ml (Anabaena flos-aquae; 5 days, 1.0 PPM) of 4348 units/ml. The “effect on algal growth” value (Anabaena flos-aquae; 5 days, 1.0 PPM and less) was “stimulated”, the Algal units/ml (Anabaena flos-aquae; 5 days, 5.0 PPM) was 2174 units/ml and the Algal units/ml (Anabaena flos-aquae; 5 days, 10.0 PPM) was 217 units/ml. The Algal units/ml (Anabaena flos-aquae; 12 days, 0.5 PPM) was 18478 units/ml, the Algal units/ml (Anabaena flos-aquae; 12 days, 1.0 PPM) was 13478 units/ml and the Algal units/ml (Anabaena flos-aquae; 12 days, 5.0 PPM) was 9130 units/ml. For the same compound, the Algal units/ml (Anabaena flos-aquae; 12 days, 10.0 PPM) was 3261 units/ml, the “effect on algal growth” value (Anabaena flos-aquae; 12 days, all concentrations) was “inhibitory effect” and the inhibition of growth at 10 ppm (Anabaena flos-aquae; 5 days) was 90.9%. For the same compound, the Algal units/ml (Chlamydomonas sp.; 5 days, 0.5 PPM) was 10217 units/ml, the Algal units/ml (Chlamydomonas sp.; 5 days, 1.0 PPM) was 10436 units/ml and the Algal units/ml (Chlamydomonas sp.; 5 days, 5.0 PPM) was 11304 units/ml. The “reduction of number of algal units/ml vs control” value (Chlamydomonas sp.; 5 days) was 5,000 algal units/ml, the Algal units/ml (Chlamydomonas sp.; 5 days, 10.0 PPM) was 6522 units/ml and the Algal units/ml (Chlamydomonas sp.; 12 days, 0.5 PPM) was 47826 units/ml. The Algal units/ml (Chlamydomonas sp.; 12 days, 1.0 PPM) was 46739 units/ml, the Algal units/ml (Chlamydomonas sp.; 12 days, 5.0 PPM) was 50000 units/ml and the Algal units/ml (Chlamydomonas sp.; 12 days, 10.0 PPM) was 53478 units/ml. For the same compound, the inhibition of growth at 10 ppm (Chlamydomonas sp.; 5 days) was 43.4%.

`CCCCCCCCCCCC(=O)O` [Dodecanoic Acid, dodecanoic acid] was tested, and the inhibition of growth at 10 ppm (Anabaena sp.; 120 h) was 22.7%, the Algal units/ml (Anabaena sp.; 5 days, 0.5 PPM) was 40435 units/ml and the Algal units/ml (Anabaena sp.; 5 days, 1.0 PPM) was 32609 units/ml. For the same compound, the Algal units/ml (Anabaena sp.; 5 days, 5.0 PPM) was 28261 units/ml, the Algal units/ml (Anabaena sp.; 5 days, 10.0 PPM) was 28696 units/ml and the inhibition of growth at 10 ppm (Anabaena sp.; 288 h) was 22.7%. For the same compound, the Algal units/ml (Anabaena sp.; 12 days, 0.5 PPM) was 139348 units/ml, the Algal units/ml (Anabaena sp.; 12 days, 1.0 PPM) was 135217 units/ml and the Algal units/ml (Anabaena sp.; 12 days, 5.0 PPM) was 92826 units/ml. The Algal units/ml (Anabaena sp.; 12 days, 10.0 PPM) was 91204 units/ml, the “effect on algal growth” value (Anabaena flos-aquae; 5 and 12 days, all concentrations) was “some inhibitory effects” and the Algal units/ml (Anabaena flos-aquae; 5 days, 0.5 PPM) was 1087 units/ml. For the same compound, the Algal units/ml (Anabaena flos-aquae; 5 days, 1.0 PPM) was 2174 units/ml, the Algal units/ml (Anabaena flos-aquae; 5 days, 5.0 PPM) was 2714 units/ml and the Algal units/ml (Anabaena flos-aquae; 5 days, 10.0 PPM) was 2174 units/ml. For the same compound, the Algal units/ml (Anabaena flos-aquae; 12 days, 0.5 PPM) was 20435 units/ml, the Algal units/ml (Anabaena flos-aquae; 12 days, 1.0 PPM) was 7609 units/ml and the Algal units/ml (Anabaena flos-aquae; 12 days, 5.0 PPM) was 6739 units/ml. It also gave an Algal units/ml (Anabaena flos-aquae; 12 days, 10.0 PPM) of 6522 units/ml, an Algal units/ml (Chlorella vulgaris; 5 days, 0.5 PPM) of 8913 units/ml and an Algal units/ml (Chlorella vulgaris; 5 days, 1.0 PPM) of 11304 units/ml. It also gave an Algal units/ml (Chlorella vulgaris; 5 days, 5.0 PPM) of 11304 units/ml, an Algal units/ml (Chlorella vulgaris; 5 days, 10.0 PPM) of 10435 units/ml and an Algal units/ml (Chlorella vulgaris; 12 days, 0.5 PPM) of 217391 units/ml. The Algal units/ml (Chlorella vulgaris; 12 days, 1.0 PPM) was 217391 units/ml, the Algal units/ml (Chlorella vulgaris; 12 days, 5.0 PPM) was 217391 units/ml and the Algal units/ml (Chlorella vulgaris; 12 days, 10.0 PPM) was 217391 units/ml. It also gave an Algal units/ml (Chlamydomonas sp.; 5 days, 0.5 PPM) of 10652 units/ml, an Algal units/ml (Chlamydomonas sp.; 5 days, 1.0 PPM) of 10435 units/ml and an Algal units/ml (Chlamydomonas sp.; 5 days, 5.0 PPM) of 12609 units/ml. The Algal units/ml (Chlamydomonas sp.; 5 days, 10.0 PPM) was 11957 units/ml, the Algal units/ml (Chlamydomonas sp.; 12 days, 0.5 PPM) was 47174 units/ml and the Algal units/ml (Chlamydomonas sp.; 12 days, 1.0 PPM) was 48696 units/ml. For the same compound, the Algal units/ml (Chlamydomonas sp.; 12 days, 5.0 PPM) was 46304 units/ml and the Algal units/ml (Chlamydomonas sp.; 12 days, 10.0 PPM) was 50217 units/ml.

`CCCCC/C=C\C/C=C\CCCCCCCC(=O)O` [Linoleic Acid, linoleic acid] showed an inhibition of growth at 10 ppm (Anabaena sp.; 120 h, 5 days, 10.0 PPM) of 38.1%, an Algal units/ml (Anabaena sp.; 5 days, 0.5 PPM) of 45217 units/ml and an Algal units/ml (Anabaena sp.; 5 days, 1.0 PPM) of 46957 units/ml. The Algal units/ml (Anabaena sp.; 5 days, 5.0 PPM) was 32609 units/ml, the Algal units/ml (Anabaena sp.; 5 days, 10.0 PPM) was 19783 units/ml and the “reduction in algal units/ml vs control” value (Anabaena sp.; 5 days, 10.0 PPM) was 12,174 algal units/ml. The inhibition of growth at 10 ppm (Anabaena sp.; 288 h, 12 days, 10 PPM) was 19.5%, the Algal units/ml (Anabaena sp.; 12 days, 0.5 PPM) was 114565 units/ml and the Algal units/ml (Anabaena sp.; 12 days, 1.0 PPM) was 135217 units/ml. The Algal units/ml (Anabaena sp.; 12 days, 5.0 PPM) was 98261 units/ml, the Algal units/ml (Anabaena sp.; 12 days, 10.0 PPM) was 95000 units/ml and the Algal units/ml (Anabaena flos-aquae; 5 days, 0.5 PPM) was 1087 units/ml. For the same compound, the “effect on algal growth” value (Anabaena flos-aquae; 5 days, 0.5 PPM) was “inhibition”, the Algal units/ml (Anabaena flos-aquae; 5 days, 1.0 PPM) was 3261 units/ml and the “effect on algal growth” value (Anabaena flos-aquae; 5 days, 1.0 PPM) was “stimulation”. The Algal units/ml (Anabaena flos-aquae; 5 days, 5.0 PPM) was 1087 units/ml, the Algal units/ml (Anabaena flos-aquae; 5 days, 10.0 PPM) was 217 units/ml and the Algal units/ml (Anabaena flos-aquae; 12 days, 0.5 PPM) was 14565 units/ml. It also gave an Algal units/ml (Anabaena flos-aquae; 12 days, 1.0 PPM) of 8261 units/ml, an Algal units/ml (Anabaena flos-aquae; 12 days, 5.0 PPM) of 4130 units/ml and an Algal units/ml (Anabaena flos-aquae; 12 days, 10.0 PPM) of 3969 units/ml. The “effect on algal growth” value (Anabaena flos-aquae; 12 days, all concentrations) was “inhibitory effect”, the inhibition of growth at 10 ppm (Anabaena flos-aquae; 5 days) was 90.9% and the Algal units/ml (Chlorella vulgaris; 5 days, 0.5 PPM) was 8697 units/ml. The Algal units/ml (Chlorella vulgaris; 5 days, 1.0 PPM) was 12174 units/ml, the Algal units/ml (Chlorella vulgaris; 5 days, 5.0 PPM) was 10870 units/ml and the Algal units/ml (Chlorella vulgaris; 5 days, 10.0 PPM) was 11304 units/ml. The Algal units/ml (Chlorella vulgaris; 12 days, 0.5 PPM) was 195652 units/ml, the Algal units/ml (Chlorella vulgaris; 12 days, 1.0 PPM) was 239130 units/ml and the Algal units/ml (Chlorella vulgaris; 12 days, 5.0 PPM) was 304348 units/ml. It also gave an Algal units/ml (Chlorella vulgaris; 12 days, 10.0 PPM) of 195652 units/ml, an Algal units/ml (Chlamydomonas sp.; 5 days, 0.5 PPM) of 11087 units/ml and an Algal units/ml (Chlamydomonas sp.; 5 days, 1.0 PPM) of 12609 units/ml. For the same compound, the Algal units/ml (Chlamydomonas sp.; 5 days, 5.0 PPM) was 12391 units/ml, the “reduction of number of algal units/ml vs control” value (Chlamydomonas sp.; 5 days) was 5,000 algal units/ml and the Algal units/ml (Chlamydomonas sp.; 5 days, 10.0 PPM) was 6522 units/ml. For the same compound, the Algal units/ml (Chlamydomonas sp.; 12 days, 0.5 PPM) was 45652 units/ml, the Algal units/ml (Chlamydomonas sp.; 12 days, 1.0 PPM) was 52174 units/ml and the Algal units/ml (Chlamydomonas sp.; 12 days, 5.0 PPM) was 50000 units/ml. For the same compound, the Algal units/ml (Chlamydomonas sp.; 12 days, 10.0 PPM) was 51087 units/ml and the inhibition of growth at 10 ppm (Chlamydomonas sp.; 5 days) was 43.4%.

Source: patent publication US4398937A, “Selective algaecides for control of cyanochloronta” (The University of Southern Mississippi, priority 1981, dated 1983)
